One may read the EC50 as the concentration at which the effect is half-maximal.

The target of this experiment is T1, RIP1 (Homo sapiens, UniProt Q13546).
T1 sequence (Q13546 1-671): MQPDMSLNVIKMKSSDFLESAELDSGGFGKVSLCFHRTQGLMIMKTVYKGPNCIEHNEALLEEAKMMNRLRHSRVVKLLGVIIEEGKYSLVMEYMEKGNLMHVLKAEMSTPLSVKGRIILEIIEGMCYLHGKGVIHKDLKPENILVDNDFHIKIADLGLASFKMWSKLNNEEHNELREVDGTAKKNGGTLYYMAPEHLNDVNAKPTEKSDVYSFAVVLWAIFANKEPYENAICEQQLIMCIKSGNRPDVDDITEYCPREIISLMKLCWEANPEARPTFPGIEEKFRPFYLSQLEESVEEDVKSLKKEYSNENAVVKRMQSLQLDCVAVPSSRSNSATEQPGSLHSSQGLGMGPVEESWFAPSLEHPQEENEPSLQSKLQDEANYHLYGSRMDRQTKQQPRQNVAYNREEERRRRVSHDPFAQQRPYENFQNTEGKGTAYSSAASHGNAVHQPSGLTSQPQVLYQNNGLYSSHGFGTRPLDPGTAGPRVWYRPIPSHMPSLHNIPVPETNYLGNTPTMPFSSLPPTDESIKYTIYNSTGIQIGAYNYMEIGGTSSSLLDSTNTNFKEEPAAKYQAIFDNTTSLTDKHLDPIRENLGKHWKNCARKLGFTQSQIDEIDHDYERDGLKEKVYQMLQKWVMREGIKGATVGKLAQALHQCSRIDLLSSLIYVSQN
Put plainly: Cellular RIP1 inhibitory activity: HT-29 necroptosis (TNFα/SMAC mimetic/zVAD-FMK) CellTiter-Glo viability assay. The class given is cell-based. As to conditions: HT-29 cells, TNF-α 10 ng/ml + SMAC mimetic 6 μM + zVAD-FMK 10 μM, 20 hours, geometric mean, read-out: EC50 Values of in vitro Cellular RIP1 Inhibitory Activity. (In ATP-based viability assays light output follows the ATP content of the culture.)

For `Cn1ncnc1-c1nc(N2CCC(C(=O)NCc3cc(F)cc(F)c3F)CC2)ncc1F` [Compound 21, 1-(5-fluoro-4-(1-methyl-1H-1,2,4-triazol-5-yl)pyrimidin-2-yl)-N-(2,3,5-trifluorobenzyl)piperidine-4-carboxamide], the EC50 lay in the range of 0.1 to 100 nM.

Regarding `Cn1ncnc1-c1nc(N2CCC(F)(C(=O)N(O)Cc3cc(F)cc(F)c3)CC2)ncc1F` [Compound 19, N-(3,5-difluorobenzyl)-4-fluoro-1-(5-fluoro-4-(1-methyl-1H-1,2,4-triazol-5-yl)pyrimidin-2-yl)-N-hydroxypiperidine-4-carboxamide], the EC50 was 0.1 to 100 nM.

`Cc1cnn(C)c1-c1nc(N2CCC(C(=O)NCc3nc(C)c(C)s3)CC2)ncc1F` [Compound 49, 1-(4-(1,4-dimethyl-1H-pyrazol-5-yl)-5-fluoropyrimidin-2-yl)-N-((4,5-dimethylthiazol-2-yl)methyl)piperidine-4-carboxamide]: the EC50 fell in the range of 100 to 1000 nM.

Take `Cc1cnn(C)c1-c1nc(N2CCC(C(=O)N(O)C(C)c3ccccc3)CC2)ncc1F` (centres unmarked) [Compound 34, 1-(4-(1,4-dimethyl-1H-pyrazol-5-yl)-5-fluoropyrimidin-2-yl)-N-hydroxy-N-(1-phenylethyl)piperidine-4-carboxamide]: the EC50 lay in the range of 0.1 to 100 nM.

Regarding `Cc1cnn(C)c1-c1nc(N2CCC(C(=O)N(O)Cc3nccs3)CC2)ncc1F` [Compound 12, 1-(4-(1,4-dimethyl-1H-pyrazol-5-yl)-5-fluoropyrimidin-2-yl)-N-hydroxy-N-(thiazol-2-ylmethyl)piperidine-4-carboxamide], the EC50 was in the range of 0.1 to 100 nM.

For the molecule `Cc1cnn(C)c1-c1nc(N2CCC(C(=O)N(C)Cc3nccs3)CC2)ncc1F` [Compound 95, 1-(4-(1,4-dimethyl-1H-pyrazol-5-yl)-5-fluoropyrimidin-2-yl)-N-methyl-N-(thiazol-2-ylmethyl)piperidine-4-carboxamide], the EC50 is 0.1 to 100 nM.

On to `O=C(C1CCN(c2ncc(F)cn2)CC1)N(O)Cc1cc(F)cc(F)c1` [Compound 30, N-(3,5-difluorobenzyl)-1-(5-fluoropyrimidin-2-yl)-N-hydroxypiperidine-4-carboxamide], for which the EC50 was in the range of 100 to 1000 nM.

On to `Cc1cnn(C)c1-c1cc(OC2CC(C(=O)N(O)Cc3cc(F)cc(F)c3)C2)c(F)cn1` (centres unmarked) [Compound 53], for which the EC50 lay within 0.1 to 100 nM.

For the molecule `Cc1cnn(C)c1-c1nc(N2CCC(C(=O)N(O)Cc3ccccn3)CC2)ncc1F` [Compound 31, 1-(4-(1,4-dimethyl-1H-pyrazol-5-yl)-5-fluoropyrimidin-2-yl)-N-hydroxy-N-(pyridin-2-ylmethyl)piperidine-4-carboxamide], the EC50 lay within 0.1 to 100 nM.

For the molecule `Cc1cnn(C)c1-c1nc(N2CCC(C(=O)N[C@@H](CO)c3ccccc3)CC2)ncc1F` [Compound 35, (R)-1-(4-(1,4-dimethyl-1H-pyrazol-5-yl)-5-fluoropyrimidin-2-yl)-N-(2-hydroxy-1-phenylethyl)piperidine-4-carboxamide], the EC50 was 0.1 to 100 nM.

In the case of `CCN(Cc1cc(F)cc(F)c1F)C(=O)C1CCN(c2ncc(F)c(-c3c(C)cnn3C)n2)CC1` [Compound 67, 1-(4-(1,4-dimethyl-1H-pyrazol-5-yl)-5-fluoropyrimidin-2-yl)-N-ethyl-N-(2,3,5-trifluorobenzyl)piperidine-4-carboxamide], the EC50 was 0.1 to 100 nM.

Regarding `CCN(Cc1ccn(C)n1)C(=O)C1CCN(c2ncc(F)c(-c3c(C)cnn3C)n2)CC1` [Compound 82, 1-(4-(1,4-dimethyl-1H-pyrazol-5-yl)-5-fluoropyrimidin-2-yl)-N-ethyl-N-((1-methyl-1H-pyrazol-3-yl)methyl)piperidine-4-carboxamide], the EC50 fell in the range of 0.1 to 100 nM.

With `Cc1cnn(C)c1-c1nc(N2CCC(C(=O)N(O)Cc3ccc(F)nc3)CC2)ncc1F` [Compound 26], the EC50 was in the range of 0.1 to 100 nM.

With `CCN(Cc1cncs1)C(=O)C1CCN(c2ncc(F)c(-c3c(C)cnn3C)n2)CC1` [Compound 99, 1-(4-(1,4-dimethyl-1H-pyrazol-5-yl)-5-fluoropyrimidin-2-yl)-N-ethyl-N-(thiazol-5-ylmethyl)piperidine-4-carboxamide], the EC50 was 0.1 to 100 nM.

As to `[2H]C([2H])(NC(=O)C1CCN(c2ncc(F)c(-c3nnc(C)s3)n2)CC1)c1cc(F)cc(F)c1F` [Compound 61, 1-(5-fluoro-4-(5-methyl-1,3,4-thiadiazol-2-yl)pyrimidin-2-yl)-N-((2,3,5-trifluorophenyl)methyl-d2)piperidine-4-carboxamide], the concentration giving a half-maximal response (EC50) lay within 0.1 to 100 nM.

For the molecule `Cc1cnn(C)c1-c1nc(N2CCC(C(=O)N(O)Cc3cccnc3F)CC2)ncc1F` [Compound 25, 1-(4-(1,4-dimethyl-1H-pyrazol-5-yl)-5-fluoropyrimidin-2-yl)-N-((2-fluoropyridin-3-yl)methyl)-N-hydroxypiperidine-4-carboxamide], the EC50 fell in the range of 0.1 to 100 nM.

For `Cc1cnn(C)c1-c1nc(N2CCC(C(=O)N(C)Cc3cc(F)cc(F)c3F)CC2)ncc1F` [Compound 66, 1-(4-(1,4-dimethyl-1H-pyrazol-5-yl)-5-fluoropyrimidin-2-yl)-N-methyl-N-(2,3,5-trifluorobenzyl)piperidine-4-carboxamide], the EC50 lay within 0.1 to 100 nM.

With `Cc1cnn(C)c1-c1nc(N2CCC(C(=O)N(C)Cc3cnn(C)c3)CC2)ncc1F` [Compound 83, 1-(4-(1,4-dimethyl-1H-pyrazol-5-yl)-5-fluoropyrimidin-2-yl)-N-methyl-N-((1-methyl-1H-pyrazol-4-yl)methyl)piperidine-4-carboxamide], the EC50 was in the range of 100 to 1000 nM.

Consider `Cc1nc(C)n(-c2nc(N3CCC(C(=O)N(O)Cc4ncccc4F)CC3)ncc2F)n1` [Compound 13, 1-(4-(3,5-dimethyl-1H-1,2,4-triazol-1-yl)-5-fluoropyrimidin-2-yl)-N-((3-fluoropyridin-2-yl)methyl)-N-hydroxypiperidine-4-carboxamide], for which the EC50 lay in the range of 0.1 to 100 nM.

Consider `Cc1ncc(CNC(=O)C2CCN(c3ncc(F)c(-c4c(C)cnn4C)n3)CC2)s1` [Compound 50, 1-(4-(1,4-dimethyl-1H-pyrazol-5-yl)-5-fluoropyrimidin-2-yl)-N-((2-methylthiazol-5-yl)methyl)piperidine-4-carboxamide], for which the EC50 lay in the range of 100 to 1000 nM.

As for `Cc1cnn(C)c1-c1nc(N2CCC(C(=O)N(O)Cc3ccccc3)CC2)ncc1F` [Compound 33, N-benzyl-1-(4-(1,4-dimethyl-1H-pyrazol-5-yl)-5-fluoropyrimidin-2-yl)-N-hydroxypiperidine-4-carboxamide], the EC50 lay within 0.1 to 100 nM.

Turning to `Cc1cnn(C)c1-c1nc(N2CCC(C(=O)N(O)Cc3cncn3C)CC2)ncc1F` [Compound 40, 1-(4-(1,4-dimethyl-1H-pyrazol-5-yl)-5-fluoropyrimidin-2-yl)-N-hydroxy-N-((1-methyl-1H-imidazol-5-yl)methyl)piperidine-4-carboxamide], the EC50 is 1000 to 10000 nM.

With `Cc1cnn(C)c1-c1nc(N2CCC(C(=O)N[C@H](CO)c3ccccc3)CC2)ncc1F` [Compound 36, (S)-1-(4-(1,4-dimethyl-1H-pyrazol-5-yl)-5-fluoropyrimidin-2-yl)-N-(2-hydroxy-1-phenylethyl)piperidine-4-carboxamide], the EC50 is 1000 to 10000 nM.
